This note sets out measurements from US20240174603A1 (Rappta Therapeutics Oy, priority 2021, published 2024).

Molecules are shown by their SMILES. Counter-ions that a name gives are not always drawn.

The subject of the assay is LNCaP cells. Nature of the assay: LNCaP cell viability assay (MTS). To be noted: Homo sapiens, LNCaP, 48 h, LNCaP cell line. The format is cell-based. An outline of the steps:
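LNCaP cells (5000/well) treated 24 h after plating with compound at 1–80 µM for 48 h. Relative cell number read by MTS; GI50 from four-parameter variable-slope log(inhibitor) fit with bottom constrained to zero.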
Molecule `CC(C)(C)OC(=O)NCC(NS(=O)(=O)c1ccc(OC(F)(F)F)cc1)c1ccc(Cl)c(Cl)c1` (centres unmarked) [Compound 224, tert-butyl (2-(3,4-dichlorophenyl)-2-((4-(trifluoromethoxy)phenyl)sulfonamido)ethyl)carbamate] yielded a 50% growth inhibitory concentration (GI50) of 15.9 µM.

For `NCC(NS(=O)(=O)c1ccc(OC(F)(F)F)cc1)c1ccc(Cl)c(Cl)c1` (centres unmarked) [Compound 225, N-(2-amino-1-(3,4-dichlorophenyl)ethyl)-4-(trifluoromethoxy)benzenesulfonamide hydrochloride], it took 21.8 µM to inhibit growth by half (GI50).

In the case of `COC(=O)c1cc(S(=O)(=O)NC(CN(C)C)c2ccc(Cl)c(Cl)c2)ccc1OC(F)(F)F` (centres unmarked) [Compound 226, methyl 5-(N-(1-(3,4-dichlorophenyl)-2-(dimethylamino)ethyl)sulfamoyl)-2-(trifluoromethoxy)benzoate], the GI50 was 70.6 µM.

The molecule `O=S(=O)(NCC1(c2ccc(Cl)c(Cl)c2)CC1)c1ccc(OC(F)(F)F)cc1` [Compound 227, N-((1-(3,4-dichlorophenyl)cyclopropyl)methyl)-4-(trifluoromethoxy)benzenesulfonamide] had a GI50 of 48.6 µM.

Molecule `O=S(=O)(NCC1(c2ccc(Cl)cc2)CC1)c1ccc(OC(F)(F)F)cc1` [Compound 228, N-((1-(4-chlorophenyl)cyclopropyl)methyl)-4-(trifluoromethoxy)benzenesulfonamide] displayed a 50% growth inhibitory concentration (GI50) of 59.9 µM.

Consider `O=S(=O)(NCC1(c2ccc(Cl)cc2)CCC1)c1ccc(OC(F)(F)F)cc1` [Compound 229, N-((1-(4-chlorophenyl)cyclobutyl)methyl)-4-(trifluoromethoxy)benzenesulfonamide], for which the GI50 is 42.5 µM.

`CC1(C)CC1(CNS(=O)(=O)c1ccc(OC(F)(F)F)cc1)c1ccccc1` (centres unmarked) [Compound 230, N-((2,2-dimethyl-1-phenylcyclopropyl)methyl)-4-(trifluoromethoxy)benzenesulfonamide] yielded a GI50 of 37.3 µM.

For the molecule `O=S(=O)(NCC1(c2ccc(Cl)c(Cl)c2)CC1)c1ccc(Oc2ccc(C(F)(F)F)cc2)cc1` [Compound 231, N-((1-(3,4-dichlorophenyl)cyclopropyl)methyl)-4-(4-(trifluoromethyl)phenoxy)benzenesulfonamide], it took 47.7 µM to inhibit growth by half (GI50).

Regarding `O=[N+]([O-])c1cc(S(=O)(=O)NCC2(c3ccc(Cl)c(Cl)c3)CC2)ccc1OC(F)(F)F` [Compound 232, N-((1-(3,4-dichlorophenyl)cyclopropyl)methyl)-3-nitro-4-(trifluoromethoxy)benzenesulfonamide], the GI50 came out at 31.1 µM.

Turning to `CN1CCN(CC(NS(=O)(=O)c2ccc(Oc3ccc(C(F)(F)F)cc3)cc2)c2ccc(Cl)c(Cl)c2)CC1` (centres unmarked) [Compound 233, N-(1-(3,4-dichlorophenyl)-2-(4-methylpiperazin-1-yl)ethyl)-4-(4-(trifluoromethyl)phenoxy)benzenesulfonamide], it took 6.19 µM to inhibit growth by half (GI50).

Turning to `CN1CCN(CC(NS(=O)(=O)c2ccc(Oc3ccccc3)cc2)c2ccc(Cl)cc2)CC1` (centres unmarked) [Compound 234, N-(1-(4-chlorophenyl)-2-(4-methylpiperazin-1-yl)ethyl)-4-phenoxybenzenesulfonamide], the GI50 is 12.1 µM.

Regarding `CN1CCN(CC(NS(=O)(=O)c2ccc(Oc3ccc(C(F)(F)F)cc3)cc2)c2ccc(Cl)cc2)CC1` (centres unmarked) [Compound 235, N-(1-(4-chlorophenyl)-2-(4-methylpiperazin-1-yl)ethyl)-4-(4-(trifluoromethyl)phenoxy)benzenesulfonamide], it took 11.3 µM to inhibit growth by half (GI50).

Consider `CN1CCN(CC(NS(=O)(=O)c2ccc(Oc3ccccc3)cc2)c2ccc(Cl)c(Cl)c2)CC1` (centres unmarked) [Compound 236, N-(1-(3,4-dichlorophenyl)-2-(4-methylpiperazin-1-yl)ethyl)-4-phenoxybenzenesulfonamide], for which the GI50 was 12.3 µM.

For `O=S(=O)(NC(CN1CCNCC1)c1ccc(Cl)c(Cl)c1)c1ccc(OC(F)(F)F)cc1` (centres unmarked) [Compound 237, N-(1-(3,4-dichlorophenyl)-2-(piperazin-1-yl)ethyl)-4-(trifluoromethoxy)benzenesulfonamide], the GI50 is 6.84 µM.

`CN(C)CC(NS(=O)(=O)c1ccc(Oc2ccccc2C(F)(F)F)cc1)c1ccc(Cl)c(Cl)c1` (centres unmarked) [Compound 238, N-(1-(3,4-dichlorophenyl)-2-(dimethylamino)ethyl)-4-(2-(trifluoromethyl)phenoxy)benzenesulfonamide] displayed a GI50 of 21.9 µM.

As to `CN(C)CC(NS(=O)(=O)c1ccc(C2CCCCO2)cc1)c1ccc(Cl)c(Cl)c1` (centres unmarked) [Compound 239, N-(1-(3,4-dichlorophenyl)-2-(dimethylamino)ethyl)-4-(tetrahydro-2H-pyran-2-yl)benzenesulfonamide], halving of growth (GI50) required 28.2 µM.

`CN(C)CC(NS(=O)(=O)c1ccc(OC(F)(F)F)c(C#N)c1)c1ccc(Cl)c(Cl)c1` (centres unmarked) [Compound 240, 3-cyano-N-(1-(3,4-dichlorophenyl)-2-(dimethylamino)ethyl)-4-(trifluoromethoxy)benzenesulfonamide] came in with a concentration for 50% growth inhibition (GI50) of 24.6 µM.

For the molecule `CCCOC1CCN(CC(NS(=O)(=O)c2ccc(OC(F)(F)F)cc2)c2ccc(Cl)c(Cl)c2)CC1` (centres unmarked) [Compound 241, N-(1-(3,4-dichlorophenyl)-2-(4-propoxypiperidin-1-yl)ethyl)-4-(trifluoromethoxy)benzenesulfonamide], the GI50 stood at 31.9 µM.

In turn, `CNCC(NS(=O)(=O)c1ccc(OC(F)(F)F)cc1)c1ccc(Cl)c(Cl)c1` (centres unmarked) [Compound 242, N-(1-(3,4-dichlorophenyl)-2-(methylamino)ethyl)-4-(trifluoromethoxy)benzenesulfonamide] came in with a GI50 of 24.1 µM.

`O=S(=O)(NCC1(c2ccc(Cl)c(Cl)c2)CCCC1)c1ccc(OC(F)(F)F)cc1` [Compound 243, N-((1-(3,4-dichlorophenyl)cyclopentyl)methyl)-4-(trifluoromethoxy)benzenesulfonamide] returned a GI50 of 51.7 µM.

Molecule `O=S(=O)(NCC1(c2ccc(Cl)cc2)CCCC1)c1ccc(OC(F)(F)F)cc1` [Compound 244, N-((1-(4-chlorophenyl)cyclopentyl)methyl)-4-(trifluoromethoxy)benzenesulfonamide] had a GI50 of 56.1 µM.

`CC(C)(NS(=O)(=O)c1ccc(OC(F)(F)F)cc1)C1(c2ccc(Cl)c(Cl)c2)CC1` [Compound 245, N-(2-(1-(3,4-dichlorophenyl)cyclopropyl)propan-2-yl)-4-(trifluoromethoxy)benzenesulfonamide] registered a GI50 of 45.2 µM.

On to `CN(C)C[C@@H](Cc1ccc(Cl)c(Cl)c1)NS(=O)(=O)c1ccc(OC(F)(F)F)cc1` [Compound 246, (R)—N-(1-(3,4-dichlorophenyl)-3-(dimethylamino)propan-2-yl)-4-(trifluoromethoxy)benzenesulfonamide], for which the GI50 was found to be 23.8 µM.

`CN(C)C[C@H](Cc1ccc(Cl)c(Cl)c1)NS(=O)(=O)c1ccc(OC(F)(F)F)cc1` [Compound 247, (S)—N-(1-(3,4-dichlorophenyl)-3-(dimethylamino)propan-2-yl)-4-(trifluoromethoxy)benzenesulfonamide]: the GI50 is 22.8 µM.

In turn, `CN(C)CC(NS(=O)(=O)c1ccc(OC2CCC2)cc1)c1ccc(Cl)c(Cl)c1` (centres unmarked) [Compound 248, 4-cyclobutoxy-N-(1-(3,4-dichlorophenyl)-2-(dimethylamino)ethyl)benzenesulfonamide] came in with a GI50 of 16.4 µM.

Molecule `CN(C)C(=O)[C@H](Cc1ccc(Cl)c(Cl)c1)NS(=O)(=O)c1ccc(OC(F)(F)F)cc1` [Compound 249, (S)-3-(3,4-dichlorophenyl)-N,N-dimethyl-2-((4-(trifluoromethoxy)phenyl)sulfonamido)propenamide] showed a GI50 of 65.3 µM.

`CN(C)CC(c1ccc(Cl)c(Cl)c1)N(C)S(=O)(=O)c1ccc(OC(F)(F)F)cc1` (centres unmarked) [Compound 250, N-(1-(3,4-dichlorophenyl)-2-(dimethylamino)ethyl)-N-methyl-4-(trifluoromethoxy)benzenesulfonamide] registered a GI50 of 39.6 µM.

Turning to `CN(C)CC(NS(=O)(=O)c1ccc(NC2CCCC2)cc1)c1ccc(Cl)c(Cl)c1` (centres unmarked) [Compound 251, 4-(cyclopentylamino)-N-(1-(3,4-dichlorophenyl)-2-(dimethylamino)ethyl)benzenesulfonamide], the GI50 came out at 22.4 µM.

For the molecule `CN(C)CC(NS(=O)(=O)c1ccc(NC2CCC2)cc1)c1ccc(Cl)c(Cl)c1` (centres unmarked) [Compound 252, 4-(cyclobutylamino)-N-(1-(3,4-dichlorophenyl)-2-(dimethylamino)ethyl)benzenesulfonamide], growth was halved (GI50) at 22.8 µM.

The molecule `O=S(=O)(NCC1(c2ccc(Cl)c(Cl)c2)CCNC1)c1ccc(OC(F)(F)F)cc1` (centres unmarked) [Compound 253, N-((3-(3,4-dichlorophenyl)pyrrolidin-3-yl)methyl)-4-(trifluoromethoxy)benzenesulfonamide] returned a GI50 of 10.7 µM.

In the case of `CC(CN(C)C)NS(=O)(=O)c1ccc(OC(F)(F)F)c([N+](=O)[O-])c1` (centres unmarked) [Compound 254, N-(1-(dimethylamino)propan-2-yl)-3-nitro-4-(trifluoromethoxy)benzenesulfonamide], the GI50 was determined as 1.92 µM.

In the case of `CN(C)C(=O)C(NS(=O)(=O)c1ccc(OC(F)(F)F)cc1)c1ccc(Cl)c(Cl)c1` (centres unmarked) [Compound 255, 2-(3,4-dichlorophenyl)-N,N-dimethyl-2-((4-(trifluoromethoxy)phenyl)sulfonamido)acetamide], the concentration for 50% growth inhibition (GI50) worked out at 38.5 µM.

`COc1ccc(CNCC(NS(=O)(=O)c2ccc(OC(F)(F)F)cc2)c2ccc(Cl)c(Cl)c2)cc1` (centres unmarked) [Compound 256, N-(1-(3,4-dichlorophenyl)-2-((4-methoxybenzyl)amino)ethyl)-4-(trifluoromethoxy)benzenesulfonamide] displayed a GI50 of 34 µM.

With `O=S(=O)(NC(CN1CCNCC1)c1ccc(Cl)cc1)c1ccc(OC(F)(F)F)cc1` (centres unmarked) [Compound 257, N-(1-(4-chlorophenyl)-2-(piperazin-1-yl)ethyl)-4-(trifluoromethoxy)benzenesulfonamide], the GI50 amounted to 11.6 µM.

With `O=S(=O)(NC(CN1CCNCC1)c1ccc(Cl)c(F)c1)c1ccc(OC(F)(F)F)cc1` (centres unmarked) [Compound 258, N-(1-(4-chloro-3-fluorophenyl)-2-(piperazin-1-yl)ethyl)-4-(trifluoromethoxy)benzenesulfonamide], the concentration for 50% growth inhibition (GI50) stood at 11.3 µM.
